Assay results published in US5554542A, “Immunoassay for isothiazolones” (Rohm and Haas Company, priority 1993, dated 1996).

Experiments:
[1] = tested on: antibodies in hybridoma culture supernatants (CF10, EH9, EC2, EC2 IB8); experiment: CIEIA of hybridoma culture supernatants; format: binding, mouse; conditions: for Inhibition of antibody binding to coating antigen: cell culture 89-147EH9, coating antigen 651-BSA; for Inhibitors (Absorbance): coating 651-BSA
Method: The supernatants from wells with growing colonies of hybridomas were screened using CIEIA. Ninety-six well polystyrene EIA ([…]) plates were coated with 100 μl of 651 conjugated to BSA (651-BSA) for at least two hours at room temperature or 16 hours at 4° C. Unbound material was washed from the wells with five washes of PBS-T. The wells then received 50 μl of buffer alone (PBS-T) or inhibitors, either 651 or 573, each diluted to 2 ppm in buffer. The wells then received 50 μl of supernatant from each cell culture, so that each supernatant was reacted with either buffer, 651 or 573 (inhibitors). […] The wells were incubated for 30-60 minutes at room temperature. They were then washed five times with PBS-T to remove unbound material and each well then received 100 μl of a 1 μg/ml solution of biotinylated horse anti-mouse IgG (Vector Laboratories, Burlingame, Calif.), and the assay continued as described for the ELISA, supra.
If the antibodies in a supernatant were reactive with one or both of the inhibitors in solution in the wells, the antibody molecules, or a percentage of the antibody molecules, would bind to the inhibitors, and would therefore form an antibody-inhibitor complex which would stay in solution and be removed from the plate during the washing step. In such a case, the binding of the antibody to the inhibitor would reduce the number of antibody molecules available to bind to the coating antigen, 651-BSA. Because fewer antibody molecules are attached to the 651-BSA, there is a reduction in the number of biotinylated horse anti-mouse IgG molecules bound, resulting in fewer molecules of avidin-peroxidase complex being bound, resulting in reduced hydrolysis of the substrate, leading ultimately to lower absorbances.
It is possible to manipulate the CIEIA to achieve greater inhibition by varying the concentrations of coating antigen, antibodies and detection molecules (such as the horse anti-mouse IgG and the avidin-peroxidase complex). Such "optimization" of the CIEIA is used to obtain higher levels of sensitivity and allow the use of lower concentrations (i.e. higher dilutions) of the monoclonal antibodies.

[2] = tested on: antibodies in hybridoma culture supernatants (CF10, EH9, EC2, EC2 IB8); experiment: CIEIA of hybridoma culture supernatants; format: binding, mouse; conditions: culture EH9, supernatant dilution 1:4, tested versus 0.4 ppm of inhibitor, coating 651-BSA; no inhibitor 0.515
[3] = culture CF10, supernatant dilution 1:2, inhibitor 1 PPM, no inhibitor 0.485
[4] = culture CF10, supernatant dilution 1:2.5, inhibitor 1 PPM, no inhibitor 0.121
[5] = culture EC2, supernatant dilution 1:2, inhibitor 1 PPM, no inhibitor 0.847
[6] = culture EC2, supernatant dilution 1:12, inhibitor 1 PPM, no inhibitor 0.917
[7] = culture EC2 IB8 (a clone of 89147EC2), supernatant dilution 1:6, inhibitor 1 PPM, no inhibitor 0.169
[8] = culture EH9, supernatant dilution 1:2, inhibitor 1 PPM, no inhibitor 0.170
[9] = culture EH9, supernatant dilution 1:2.5, inhibitor 1 PPM, no inhibitor 0.386

Row | SMILES | Inhibition of antibody binding to coating antigen [1] | Inhibitors (Absorbance) [1, 3] | Inhibitors (Absorbance) [1, 4] | Inhibitors (Absorbance) [1, 5] | Inhibitors (Absorbance) [1, 6] | Inhibitors (Absorbance) [1, 7] | Inhibitors (Absorbance) [1, 8] | Inhibitors (Absorbance) [1, 9] | Inhibitors (Absorbance) [2]
1 | Cn1sccc1=O [compound 573, 2-methyl-3-isothiazolone] | inhibitable | 0.479 | 0.099 | 0.520 | 0.872 | 0.121 | 0.117 | 0.135 | 0.504
2 | Cn1sc(Cl)cc1=O [compound 651, 5-chloro-2-methyl-3-isothiazolone] | inhibitable | 0.419 | 0.119 | 0.652 | 0.910 | 0.124 | 0.150 | 0.122 | 0.186
